In PMC9699089 (Pathogens, 2022):
Like-named read-outs stand apart in the source and are kept apart here.

Tests used:
[1] = test system: Pf1 (DNA, G4) GGGTTTAGGGTTTAGGGTTTAGGG; test: native ESI-MS; conditions: 1 mM KCl, 100 mM TMAA, 10 µM oligonucleotide; for Kd1: 20 µM ligand
[2] = test system: 24TTG (DNA, G4) TTGGGTTAGGGTTAGGGTTAGGGA; test: native ESI-MS; conditions: 1 mM KCl, 100 mM TMAA, 10 µM oligonucleotide; for Kd1: 20 µM ligand
[3] = test system: FPf8T (DNA, G4) GGGTTCAGGGTTCAGGGTTCAGGG; test: FRET melting; conditions: 10 mM KCl, 90 mM LiCl; 10 mM lithium cacodylate pH 7.2; 0.2 µM oligonucleotide, 2 µM compound
[4] = test system: Pf8 (DNA, G4) GGGTTCAGGGTTCAGGGTTCAGGG; test: native ESI-MS; conditions: 1 mM KCl, 100 mM TMAA, 10 µM oligonucleotide, 20 µM ligand
[5] = test system: FPf1T (DNA, G4) GGGTTTAGGGTTTAGGGTTTAGGG; test: FRET melting; conditions: 10 mM KCl, 90 mM LiCl; 10 mM lithium cacodylate pH 7.2; 0.2 µM oligonucleotide, 2 µM compound
[6] = test system: FtrypBT (FEBR1T) (DNA, G4) GGGCAGGGGGTGATGGGGAGGAGCCAGGG; test: FRET melting; conditions: 10 mM KCl, 90 mM LiCl; 10 mM lithium cacodylate pH 7.2; 0.2 µM oligonucleotide, 2 µM compound
[7] = test system: FdxT (DNA, hairpin, hexaethyleneglycol linker between position 10 and 11) TATAGCTATATATAGCTATA; test: FRET melting; conditions: 10 mM KCl, 90 mM LiCl, 10 mM lithium cacodylate pH 7.2, 0.2 µM oligonucleotide
[8] = test system: F21T (DNA, G4) GGGTTAGGGTTAGGGTTAGGG; test: FRET melting; conditions: 10 mM KCl, 90 mM LiCl, 10 mM lithium cacodylate pH 7.2, 0.2 µM oligonucleotide
[9] = test system: 24nonG4 (DNA, single strand) TGGGATGCGACAGAGAGGACGGGA; test: native ESI-MS; conditions: 1 mM KCl; 100 mM TMAA; 10 µM oligonucleotide; no binding detected at 20 µM ligand
[10] = test system: DK66 (DNA, duplex) CGCGAATTCGCG; test: native ESI-MS; conditions: 1 mM KCl; 100 mM TMAA; 10 µM oligonucleotide; no binding detected at 20 µM ligand
[11] = test system: Plasmodium falciparum CQ-sensitive strain 3D7; test: In vitro antiplasmodial activity, SYBR Green I fluorescence-based method, strain 3D7; type: cell-based; conditions: read-out: P. falciparum Strains IC50 Values 3D7
Protocol: (§1) The in vitro antiplasmodial activities were tested over concentrations ranging from 39 nM to 40 µM against culture-adapted Plasmodium falciparum reference strains 3D7 and W2. […] These two strains are obtained from the collection of the National Museum of Natural History (Paris, France). The parasites were cultivated in RPMI medium (Sigma Aldrich, Lyon, France) supplemented with 0.5% Albumax I (Life Technologies Corporation, Paisley, UK), hypoxanthine (Sigma Aldrich), and gentamicin (Sigma Aldrich) with human erythrocytes and were incubated at 37 °C in a candle jar, as described previously. The P. falciparum drug susceptibility test was carried out in 96-well flat bottom sterile plates in a final volume of 250 µL. After 48 h incubation period with the drugs, quantities of DNA in treated and control cultures of parasites in human erythrocytes were quantified using the SYBR Green I (Sigma Aldrich) fluorescence-based method. Briefly, after incubation, plates were frozen at -20 °C until use. Plates were then thawed for 2 h at room temperature, and 100 µL of each homogenized culture was transferred to a well of a 96-well flat bottom sterile black plate (Nunc, Inc.) that contained 100 µL of the SYBR Green I lysis buffer (2xSYBR Green, 20 mM Tris base pH 7.5, 5 mM EDTA, 0.008% w/v saponin, 0.08% w/v Triton X-100). […] Plates were incubated for 1 h at room temperature and then read on a fluorescence plate reader (Tecan, Austria) using excitation and emission wavelengths of 485 and 535 nm, respectively.

[12] = test system: Plasmodium telomeric sequence FPf8T G-quadruplex; test: FRET melting assay, FPf8T; type: binding, Plasmodium falciparum; conditions: oligonucleotide 0.2 μM, K+ conditions
[13] = test system: human telomeric sequence F21T G-quadruplex; test: FRET melting assay, F21T; type: binding; conditions: oligonucleotide 0.2 μM, K+ conditions
[14] = test system: Plasmodium telomeric sequence FPf1T G-quadruplex; test: FRET melting assay, FPf1T; type: binding, Plasmodium falciparum; conditions: oligonucleotide 0.2 μM, K+ conditions
[15] = test system: Plasmodium falciparum CQ-resistant strain W2; test: In vitro antiplasmodial activity, SYBR Green I fluorescence-based method, strain W2; type: cell-based; conditions: read-out: P. falciparum Strains IC50 Values W2
Protocol: as §1

[16] = test system: L. donovani (MHOM/IN/00/DEVI) promastigotes; test: In vitro antileishmanial activity on promastigotes, MTT assay; type: cell-based; conditions: Leishmania donovani, 72 h incubation, mean +/- SD of three independent experiments
Protocol: L. donovani (MHOM/IN/00/DEVI) used in this study was provided by the CNR Leishmania (Montpellier, France). The effects of the tested compounds on the growth of L. donovani (MHOM/IN/00/DEVI) promastigotes were assessed by MTT assay. Briefly, promastigotes in log-phase in Schneider’s medium supplemented with 20% fetal calf serum (FCS), 2 mM L-glutamine and antibiotics (100 U/mL penicillin and 100 µg/mL streptomycin), were incubated at an average density of 10^6 parasites/mL in sterile 96-well plates with various concentrations of compounds previously dissolved in DMSO (final concentration less than 0.5% v/v), in duplicate. […] Duplicate assays were performed for each sample. After the 72 h incubation period at 27 °C, parasite metabolic activity was determined. Each well was microscopically examined for precipitate formation. To each well was added 10 µL of 10 mg/mL MTT [3-(4,5-dimethylthiazol-2-yl)-2,5-diphenyltetrazolium bromide)] solution followed by 4 h incubation time. The enzyme reaction was stopped by addition of 100 µL of 50% isopropanol/10% sodium dodecyl sulfate. Plates were vigorously shaken (300 rpm) for 10 min, and the absorbance was measured at 570 nm with 630 nm as reference wavelength in a BIOTEK ELx808 Absorbance Microplate Reader (Agilent Technologies, Les Ulis, France). […] IC50 of the parasite’s growth (half maximal inhibitory concentration or IC50 values) were then calculated from the obtained experimental results using a previously described regression program. IC50 values were calculated from three independent experiments.

[17] = test system: T. brucei brucei AnTat 1.9; test: In vitro antitrypanosomal activity, Alamar Blue assay; type: cell-based, Trypanosoma brucei brucei
Protocol: The effects of the tested compounds on the growth of T. brucei brucei were assessed using an Alamar Blue® assay described by Räz et al. T. brucei brucei AnTat 1.9 ([…], Belgium) was cultured in MEM with Earle's salts, supplemented according to the protocol of Baltz et al. […] All doses were tested in duplicate. Appropriate controls treated with solvents 0.9% NaCl or DMSO or with suramin, pentamidine, eflornithine, and fexinidazole (reference drugs purchased from Sigma Aldrich and Fluorochem, UK) were added to each set of experiments. After 69 h incubation period at 37 °C, 10 μL of the viability marker Alamar Blue (Fisher) was added to each well, and the plates were incubated for 5 h. The plates were read in a PerkinElmer ENSPIRE (Germany) microplate reader using an excitation wavelength of 530 nm and an emission wavelength of 590 nm.

[18] = test system: human HepG2 cells; test: Cytotoxicity evaluation, MTT assay; type: cell-based; conditions: HepG2 cells; 72 h; mean +/- SD of three independent experiments
Protocol: These cells are a commonly used human hepatocarcinoma-derived cell line that has characteristics similar to those of primary hepatocytes. These cells express many hepatocyte-specific metabolic enzymes, thus enabling the cytotoxicity of tested product metabolites to be evaluated. […] Duplicate assays were performed for each sample. Each well was microscopically examined for precipitate formation before the medium was aspirated from the wells. After aspiration, 100 µL of MTT solution (0.5 mg/mL in medium without FCS) were then added to each well. […] The MTT solution was removed, and DMSO (100 µL) was added to dissolve the resulting blue formazan crystals. Plates were shaken vigorously (300 rpm) for 5 min. The absorbance was measured at 570 nm with 630 nm as reference wavelength in a BIO-TEK ELx808 Absorbance Microplate Reader. DMSO was used as blank and doxorubicin (Sigma Aldrich) as positive control. Cell viability was calculated as percentage of control (cells incubated without compound). The CC50 was determined from the dose-response curve using TableCurve 2D V5.0 software (Systat Software, Palo Alto, CA, USA).

[19] = test system: human duplex sequence FdxT; test: FRET melting assay, duplex control FdxT; type: binding; conditions: tested at 0.5 μM, oligonucleotide 0.2 μM, K+ conditions
[20] = test system: Trypanosoma 9 and 11 chromosomic sequence FTrypBT (FEBR1T) G-quadruplex; test: FRET melting assay, FtrypBT; type: binding, Trypanosoma brucei brucei; conditions: tested at 0.5 μM, oligonucleotide 0.2 μM, K+ conditions
Protocol: These were performed with dual-labeled oligonucleotides mimicking the Plasmodium telomeric sequences FPf1T [FAM-5′(GGGTTTA)3-GGG3′-TAMRA] and FPf8T [FAM-5′(GGGTTCA)3GGG3′-TAMRA], the Trypanosoma 9 and 11 chromosomic sequence FTrypBT (also named FEBR1T) [FAM-5′[…]3′-TAMRA], the human telomeric sequence F21T [FAM-(GGGTTA)3-GGG3′-TAMRA] and the human duplex sequence FdxT [FAM5′-[…]-hexaethyleneglycol-[…]3′-TAMRA] [27, 31, 47]. The oligonucleotides were pre-folded in 10 mM lithium cacodylate buffer (pH 7.2), with 10 mM KCl and 90 mM LiCl (K^+ condition). The FAM emissions were recorded at 516 nm using a 492-nm excitation wavelength in the absence and presence of a single compound as a function of temperature (25 to 95 °C) in 96-well microplates using a Stratagene MX3000P real-time PCR device at a rate of 1 °C∙min-1. Data were normalized between 0 and 1, and the required temperature for half-denaturation of oligonucleotides corresponding to the emission value of 0.5 was taken as the Tm. Each experiment was performed in duplicate with 0.2 µM of labeled oligonucleotide and 2 µM of compound under K^+ condition. For each compound, three independent experiments were carried out.

[21] = no binding detected at 20 µM ligand

CN(C)CCCCCNCc1cc(-c2ccccc2)c2ccc3c(-c4ccccc4)cc(CNCCCCCN(C)C)nc3c2n1
Kd1 ([1]; site 1 of 2 (Kd2 24 µM)): 8 µM
Kd1 ([2]; site 1 of 2 (Kd2 62 µM)): 38 µM
ΔTm [3]: 20.5 ± 0.2 °C
Kd1 ([4]; site 1 of 2 (Kd2 16 µM)): 3 µM
ΔTm [5]: 18.8 ± 0.2 °C
ΔTm [6]: 14.7 ± 0.7 °C
ΔTm ([7]; 2 µM compound): 1.8 ± 0.2 °C
ΔTm ([8]; 2 µM compound): 18.1 ± 0.9 °C

CN(C)CCCCNCc1cc(-c2ccccc2)c2ccc3c(-c4ccccc4)cc(CNCCCCN(C)C)nc3c2n1
Kd1 ([2]; site 1 of 2 (Kd2 28 µM)): 44 µM
Kd1 ([4]; site 1 of 2 (Kd2 50 µM)): 3 µM

c1ccc(-c2cc(CNCCCN3CCCC3)nc3c2ccc2c(-c4ccccc4)cc(CNCCCN4CCCC4)nc23)cc1
Kd1 ([1]; site 1 of 2 (Kd2 37 µM)): 10 µM
Kd1 ([2]; site 1 of 2 (Kd2 18 µM)): 34 µM
Kd1 ([4]; site 1 of 2 (Kd2 59 µM)): 2 µM
ΔTm ([7]; 2 µM compound): 0.7 ± 0.2 °C

c1ccc(-c2cc(CNCCc3ccccn3)nc3c2ccc2c(-c4ccccc4)cc(CNCCc4ccccn4)nc23)cc1
binding [1, 21]: no
binding [2, 21]: no
ΔTm [3]: 1.0 ± 0.2 °C
binding [9]: no
binding [10]: no
Kd1 [4]: 83 µM
ΔTm [5]: 1.3 ± 0.2 °C
ΔTm [6]: 1.8 ± 0.6 °C
ΔTm ([8]; 2 µM compound): 1.0 ± 0.5 °C

CCN(CC)CCCC(C)Nc1ccnc2cc(Cl)ccc12 (centres unmarked) [CQ, chloroquine]
IC50 ([11]; 3D7, 48 h): 110 ± 10 nM
ΔTm FPf8T ([12]; tested at 1 μM): 2.4 °C
ΔTm F21T ([13]; tested at 1 μM): 2.4 °C
ΔTm FPf1T ([14]; tested at 1 μM): 1.9 °C
IC50 ([15]; W2, 48 h): 400 ± 40 nM

OC(c1cc(C(F)(F)F)nc2c(C(F)(F)F)cccc12)C1CCCCN1 (centres unmarked) [MQ, mefloquine]
IC50 ([11]; CQ-sensitive strain 3D7, 48 h incubation, mean of three independent experiments): 60 ± 3 nM
ΔTm FPf8T ([12]; tested at 1 μM): 6.6 °C
ΔTm F21T ([13]; tested at 1 μM): 2.6 °C
ΔTm FPf1T ([14]; tested at 1 μM): 3.1 °C
IC50 ([15]; CQ-resistant strain W2, 48 h incubation, mean of three independent experiments): 16 ± 2 nM

N=C(N)c1ccc(OCCCCCOc2ccc(C(=N)N)cc2)cc1 [Pentamidine, reference compound]
IC50 [16]: 5500 ± 800 nM
Selectivity Index HepG2/Tryp. ([17]; SI = CC50 HepG2 / IC50 Trypanosoma brucei brucei): 11,500
IC50 ([17]; Trypanosoma brucei, slender bloodstream trypomastigotes, AnTat 1.9 strain, mean +/- SD of three independent experiments, read-out: Trypanosoma brucei brucei IC50 Values Trypanos Antat 1.9): 0.2 ± 0.06 nM
CC50 [18]: 2300 ± 500 nM

C[n+]1cc(NC(=O)c2ccc3ccc4ccc(C(=O)Nc5cc6ccccc6[n+](C)c5)nc4c3n2)cc2ccccc21 [PhenDC3]
ΔTm FPf8T ([12]; tested at 0.5 μM): 24.7 °C
ΔTm FdxT [19]: 0.1 °C
ΔTm F21T ([13]; tested at 0.5 μM): 26.3 °C
ΔTm ([7]; 0.5 µM compound): 0.1 ± 0.2 °C
ΔTm FtrypBT [20]: 19.2 °C
ΔTm FPf1T ([14]; tested at 0.5 μM): 24.6 °C
ΔTm ([8]; 0.5 µM compound): 26.3 ± 0.1 °C
